Entries after “also recorded” stand apart in the source; their conditions may differ.
Tests used:
platelets = conditions: literature, cited from earlier work
[1] = test system: platelet rich plasma (PRP); experiment: ADP-induced platelet aggregation in PRP; type: cell-based, human
Protocol: (§1) PRP and WP (2.5×10^8 platelets ml^−1) were prepared from blood. Briefly 36 ml whole blood was collected into 4 ml of 3.15% sodium citrate; this was centrifuged at 250 ¥g for 20 min (with gentle acceleration and deceleration). At this point PRP, which had separated from white blood cells and red blood cells, was gently removed. When WP were required this PRP was centrifuged at 700 g for 10 min (with gentle acceleration and deceleration) in the presence of prostacyclin. The platelet-poor plasma (PPP) was removed and the platelet pellet was washed three times with Tyrode's buffer, before being re-suspended in Tyrode's buffer to a concentration of 2.5 ¥108 platelets/ml.
(§2) Platelet aggregation was measured by light aggregometry. […] Aggregation was initiated by the addition of agonists, and monitored by Aggro-Link software for at least 6 min.
(§3) To study the aggregatory potency of ADP, the concentration-response (0.3-10 μM) curves were generated. Collagen at different concentrations (2-5 μg/ml) was also used to induce platelet aggregation. Submaximal concentrations of agonists, i.e. the concentrations that gave approximately 95% of the maximal aggregation were used to study the effects of inhibitors of aggregation. Aspirin and aspirin prodrugs was incubated for various intervals prior to the addition of aggregating agents.
(§4) Eserine (in DMSO, 10 μM, giving a final concentration≦0.25% DMSO, which pilot studies had determined not to affect platelet aggregation) was preincubated with PRP or WP for 5 min in the aggregometer with stirring at 900 r.p.m. before the addition of test compounds (ST0701-05), which were incubated in PRP or WP for a further 10 min prior to the addition of an agonist (10 μM ADP or 5 μg/ml Collagen) to induce platelet aggregation.
1H-[1,2,4]Oxadiazolo[4,3-a]quinoxalin-1-one (ODQ, dissolved in 100% DMSO, used at a final concentration of 10 μM, which gave a final concentration not more than 0.25% DMSO) was preincubated with PRP or WP for 5 min in the aggregometer with stirring at 900 r.p.m. before the addition of test compounds (ST0701-05), which were incubated in PRP or WP for a further 10 min prior to the addition of an agonist (10 μM ADP or 5 μg/ml collagen) to induce platelet aggregation.
Eserine (10 μM) was incubated with PRP for 5 min in the aggregometer with stirring at 900 r.p.m. before the addition of test compound ST0702 salicylate (500 μM), which was incubated in PRP for a further 10 min prior to the addition of the agonist ADP (10 μM) to induce platelet aggregation.

59M cells [2] = experiment: Tumour cell-induced platelet aggregation (TCIPA), static conditions, 59M; type: cell-based, human; conditions: static, WP, 300 and 500 μM, 59M 1×10^3/ml; listed as ISAS
Text: ISAS meanwhile is hydrolysed to aspirin and salicylic acid. […] The structure of platelet-tumor cell aggregates was studied using phase-contrast microscopy (Alonso-Escolano et al., 2004; Jurasz et al., 2001). […] Aliquots of each sample were then taken for phase-contrast microscopy examination using an Olympus CKX41 microscope (Olympus America Inc., […].). Photomicrographs were captured using a digital camera and MicroFire (Olympus America Inc.) software (Alonso-Escolano et al., 2004; Jurasz et al., 2001).

GPIIb/IIIa = experiment: Flow cytometry of activated GPIIb/IIIa on platelets after collagen stimulation; type: cell-based, human; conditions: 60 μM
Protocol: (§5) In order to analyze receptor expression on the surface of individual platelets and to minimize platelet activation caused by sample preparation procedures, no stirring or vortexing steps were used. The abundance of activated GPIIb/IIIa and P-selectin on the surface of platelets in the presence and absence of inhibitors was measured by flow cytometry. Platelet samples were first activated with agonists either collagen or ADP. When platelet aggregation reached 50% maximal light transmission the reaction was terminated by 10-fold dilution with physiologic saline. Resting platelets were used as control. […] The activated GPIIb/IIIa platelet receptors were measured using PAC-1 monoclonal antibody at the same concentration as above. […] Following incubation, samples were diluted in FACS Flow fluid and analyzed within 5 min using a BD FACSArray (BD Biosciences, Oxford, UK). […] The instrument was set up to measure the size (forward scatter), granularity (side scatter) and cell fluorescence. […] Antibody binding was measured by analyzing individual platelets for fluorescence. The mean fluorescence intensity was determined after correction for cell autofluorescence. For each sample, the fluorescence was analyzed using a logarithmic scale. Fluorescence histograms were obtained for 10,000 individual events. […]

P-selectin [3] = experiment: Flow cytometry of P-selectin on platelets after collagen stimulation; type: cell-based, human; conditions: 60 μM
Protocol: as §5

P-selectin [4] = experiment: Flow cytometry of platelet P-selectin during TCIPA induced by 59M cells; type: cell-based, human; conditions: 300 μM
[5] = test system: platelet rich plasma (PRP); experiment: Collagen-induced platelet aggregation in platelet rich plasma (light aggregometry); type: cell-based, human; conditions: 200 μM in PRP, collagen 5 μg/ml
Protocol: as §1, §2, §3, §4

washed platelets (WP) = experiment: Collagen-induced platelet aggregation in washed platelets (light aggregometry); type: cell-based, human; parameters: IC50: unit of the concentration uncertain
Protocol: as §1, §2, §3
To study the involvement of plasma BuChE in the activation of ST0701, purified BuChE (3 U/ml) was incubated with WP for 5 min in the aggregometer with stirring at 900 r.p.m. before the addition of the test compounds ST0701 which was incubated with the WP for a further 10 min, prior to the addition of collagen (5 ug/ml).
as §4
Phenylmethylsulphonylfluoride (PMSF) 20, 50 and 100 μM dissolved in EtOH (<0.2% EtOH, which pilot studies had determined not to affect platelet aggregation) was preincubated in WP in the aggregometer for 5 min with stirring at 900 r.p.m. before the addition of test compound ST0702 to the WP, which was further incubated for 10 min prior to the addition of collagen (2 μg/ml) to induce platelet aggregation.

[6] = In-vitro half life of the ST0702 metabolite; type: in vitro ADME
washed platelet samples = experiment: Collagen-induced platelet aggregation in the TCIPA studies (washed platelets); type: cell-based, human; conditions: collagen 2 μg/ml (FIG. 16B)
HT1080 cells = experiment: Tumour cell-induced platelet aggregation (TCIPA), static conditions, HT1080; type: cell-based, human; conditions: 500 μM
Protocol: Three human tumor cell lines, 59M ovarian adenocarcinoma, Caco-2 colon adenocarcinoma and HT1080 fibrocarcinoma cells, were obtained from the European Cell Culture Collection. Cell lines were cultured as monolayers in 75 ml culture flasks at 37° C. in a humidified atmosphere with 5% CO2. 59M cells and HT1080 were cultured in Dulbecco's […] (DMEM) supplemented with 10% fetal bovine serum (FBS) and gentamycin (0.05 mg/ml), penicillin (0.06 mg/ml), and streptomycin (0.01 mg/ml). Caco-2 cell line was cultured in Minimum Essential Medium (MEM) supplemented with 20% FBS and the same antibiotics as above. The cells were supplied with fresh medium and subcultured three times each week.
Washed platelet suspensions (2.5×10^11 platelets 1^−1) were prepared from blood an mixed with the anticoagulant sodium citrate (0.315% final concentration).
The interactions between platelets and tumor cells were measured by light aggregometry (Alonso-Escolano et al., 2004; Jurasz et al., 2001b; Radomski et al., 1991). Briefly, washed platelet samples (2.5×10^8/ml) were placed in an eight channel PAP 8 aggregometer (BIO/DATA CORPORATION, Horsham, Pa., U.S.A.) and incubated for 10 min at 37° C., with stirring at 900 r.p.m., prior to the addition of aggregating agents. […] TCIPA was initiated by the addition of cancer cells, and monitored by Aggro-Link software for at least 30 min. For experiments using inhibitors, aggregation was initiated after 10 min preincubation with these compounds.
To study the ability of the aspirin pro-drugs to inhibit TCIPA in WP cancer cell lines such as HT1080 cells (2×10^5/ml), CaCo2 cells (1.5×10^3/ml) or 59M cells (1×10^3/ml) were used in the presence or absence of aspirin nicotinate (ST0702), ISAS, orthonitrate and metanitrate at 300 and 500 μM. Platelet aggregation was initiated in washed platelets (WP) using HT1080 cells (2×10^5/ml), CaCo2 cells (1.5×10^3/ml) or 59M cells (1×10^3/ml). In addition, regular aspirin (300 and 500 uM) was used as control. Results were expressed in percent changes in maximal light transmission, with 100% representing light transmission of platelet medium alone. ST0702 is hydrolyzed by plasma esterases along two pathways liberating both aspirin and 5-nicotinate salicylate (ST0702 salicylate)(metabolite). The latter is further processed to isosorbide-5-nicotinate and eventually to nicotinic acid. The orthonitrate and metanitrate compounds liberate aspirin and nitric oxide (NO). ISAS meanwhile is hydrolysed to aspirin and salicylic acid. Aspirin (300 and 500 μM) was used in control experiments. Results were expressed in percent changes in maximal light transmission, with 100% representing light transmission of platelet medium alone. Further experiments were performed with ST0702 salicylate (500 μM).

59M cells [7] = experiment: Flow-mediated TCIPA using an ultrasound standing wave trap; type: cell-based, human; conditions: 500 μM, 59M cell cluster
Text: The ultrasound trap had three essential features: a transducer (Ferroperm, Kvistgard, Denmark) in a housing of radial symmetry, an aqueous phase and a reflector that provided optical access from above. The trap was driven with a function generator (Hewlett Packard 33120A, UK). Microscopic observation occurred with a fast, high-resolution XM10 camera (Soft Imaging System, SIS, GmbH) mounted on an Olympus BX51M reflection epi-fluorescence microscope. Images were captured by a standard PC equipped with the Cell-D image acquisition software (Soft Imaging System, SIS, GmbH).
The experimental procedure was as follows: 59M cells were introduced into the trap, the acoustic field (2.13 MHz, 0.85 MPa) was initiated and cell clusters were allowed to form. Clusters remained levitated in suspension for 10 min. Washed platelets (2.5×10^8/ml) were introduced into the trap at a flow rate of 3 μl/min. Perfusion of washed platelets around the cluster proceeded following initial adhesion of platelets to the periphery of the cluster.
To study the effect of aspirin and aspirin prodrugs in TCIPA, washed platelets were pre-incubated for 10 min at room temperature with the inhibitors: aspirin, nicotinate, ISAS, ISMNA, ortho and meta (all at a concentration of 500 μM), prior to their introduction into the ultrasound trap. […] The cell cluster-platelet aggregate remained under microscopic observation for further 10 min (the upper time limit established in the current study) under continuous flow conditions. Further experiments were performed with ST0702 salicylate (500 μM).

TCIPA = conditions: at up to 3 mM

In the case of `CC(=O)Oc1ccccc1C(=O)Oc1cccc(CO[N+](=O)[O-])c1` [NCX-4016], the “inhibition of platelet aggregation in WP” value (platelets; NO and cGMP independent) is listed as “inhibits platelet aggregation” and the “inhibition of platelet aggregation in PRP” value (platelets) is listed as “does not inhibit platelet aggregation”.
For `CC(=O)Oc1ccccc1C(=O)OC1COC2C(OC(=O)c3ccccc3O)COC12` (stereo not shown) [ST0701, isosorbide-2-aspirinate-5-salicylate], the “inhibition of ADP (10 μM) induced aggregation in PRP, comparison in words” value ([1]; ADP 10 μM, PRP) was “more efficacious than aspirin”, the “effect of ODQ pretreatment on inhibition of ADP induced aggregation” value ([1]; ODQ 10 μM, compounds 100 μM, ADP 10 μM, PRP) was “increased the inhibition” and the “inhibition of TCIPA induced by 59M” value (59M cells [2]) was “able to inhibit; also recorded: inhibited”. The “activation of GPIIb/IIIa in PRP” value (GPIIb/IIIa) was “significantly suppressed”, the “translocation of P-selectin in PRP” value (P-selectin [3]; PRP) was “significantly suppressed” and the “translocation of P-selectin in WP” value (P-selectin [3]; WP) was “not in WP”. The “59M-mediated increase in platelet surface P-selectin” value (P-selectin [4]) was “failed to prevent”, the “inhibition of aggregation at 2 min preincubation” value [5] was 40% and the “preincubation time at which inhibition is maximal” value [5] was 5 min. The “inhibitory actions in WP after addition of human BuChE purified from plasma” value (washed platelets (WP); BuChE 3 U/ml, collagen 5 μg/ml) was “rescued”, the “inhibition of collagen induced aggregation in WP” value (washed platelets (WP); at 500 μM, collagen 5 μg/ml) was 50% and the IC50 (washed platelets (WP); inhibition of platelet aggregation in response to collagen (5 (unit uncertain)), washed platelets) was 200 µM.
In the case of `O=C(O[C@@H]1CO[C@H]2[C@@H]1OC[C@@H]2OC(=O)c1ccccc1O)c1cccnc1` [ST0702 salicylate, isosorbide-2-salicylate-5-nicotinate], the “inhibition of ADP-induced aggregation in PRP” value ([1]; 500 μM, ADP 10 μM) is reported as “inhibited ADP-induced aggregation”, the “inhibition of ADP-induced aggregation in PRP in the presence of eserine” value ([1]; 500 μM, eserine 10 μM) is reported as “became significant” and the half life in-vitro [6] is reported as “very short”. The “inhibition of collagen-induced platelet aggregation” value (washed platelet samples) was “did not inhibit collagen-induced platelet aggregation”, the “inhibition of TCIPA in response to HT1080, no flow” value (HT1080 cells) was “inhibit TCIPA” and the “inhibition of TCIPA under flow conditions (platelet-tumour cell disruption)” value (59M cells [7]) was “did not inhibit TCIPA under flow conditions”.
With `O=C(OC1COC2C(O)COC12)c1cccnc1` (stereo not shown) [isosorbide-5-nicotinate] the “inhibition of TCIPA” value (TCIPA) was “did not inhibit TCIPA”.
For `O=C(O)c1cccnc1` [nicotinic acid, reference compound], the “inhibition of TCIPA” value (TCIPA) was “did not inhibit TCIPA”.
